Values of other authors in patent US20190045778A1, “EMULSIFIABLE CONCENTRATES” (priority 2016, published 2019).
Where two headings read alike, the source gives them in different places.

Compound | Water Solubility (at 20° C.) [g/L at 20 °C] | Water Solubility (at 25° C.) [g/L at 25 °C]
CN/C(=N\[N+](=O)[O-])NCc1cnc(Cl)s1 [clothianidin] | 0.33 | –
N#C/N=C1/SCCN1Cc1ccc(Cl)nc1 [thiacloprid] | 0.1 | –
thiamethoxam | – | 4.1
